Source: ChEMBL document CHEMBL1833803, “Discovery of 1-amino-5H-pyrido[4,3-b]indol-4-carboxamide inhibitors of Janus kinase 2 (JAK2) for the treatment of myeloproliferative disorders” (J Med Chem, 2011)

How the values were obtained:
[1] = Selectivity ratio of IC50 for JAK3 to IC50 for JAK2
[2] = molecular target: T1, Tyrosine-protein kinase JAK2 (Homo sapiens, UniProt O60674); test: Inhibition of JAK2-mediated STAT5 phosphorylation in human HEL 92.1.7 irf1-bla cells; type: cell-based
[3] = molecular target: T1, Tyrosine-protein kinase JAK2; test: Inhibition of JAK2 using biotin-EQEDEPEGDYFEWLE- NH2 as substrate
[4] = molecular target: T2, Tyrosine-protein kinase JAK3 (Homo sapiens, UniProt P52333); test: Inhibition of JAK3 using biotin-EQEDEPEGDYFEWLE- NH2 as substrate
T2 sequence (P52333 whole entry): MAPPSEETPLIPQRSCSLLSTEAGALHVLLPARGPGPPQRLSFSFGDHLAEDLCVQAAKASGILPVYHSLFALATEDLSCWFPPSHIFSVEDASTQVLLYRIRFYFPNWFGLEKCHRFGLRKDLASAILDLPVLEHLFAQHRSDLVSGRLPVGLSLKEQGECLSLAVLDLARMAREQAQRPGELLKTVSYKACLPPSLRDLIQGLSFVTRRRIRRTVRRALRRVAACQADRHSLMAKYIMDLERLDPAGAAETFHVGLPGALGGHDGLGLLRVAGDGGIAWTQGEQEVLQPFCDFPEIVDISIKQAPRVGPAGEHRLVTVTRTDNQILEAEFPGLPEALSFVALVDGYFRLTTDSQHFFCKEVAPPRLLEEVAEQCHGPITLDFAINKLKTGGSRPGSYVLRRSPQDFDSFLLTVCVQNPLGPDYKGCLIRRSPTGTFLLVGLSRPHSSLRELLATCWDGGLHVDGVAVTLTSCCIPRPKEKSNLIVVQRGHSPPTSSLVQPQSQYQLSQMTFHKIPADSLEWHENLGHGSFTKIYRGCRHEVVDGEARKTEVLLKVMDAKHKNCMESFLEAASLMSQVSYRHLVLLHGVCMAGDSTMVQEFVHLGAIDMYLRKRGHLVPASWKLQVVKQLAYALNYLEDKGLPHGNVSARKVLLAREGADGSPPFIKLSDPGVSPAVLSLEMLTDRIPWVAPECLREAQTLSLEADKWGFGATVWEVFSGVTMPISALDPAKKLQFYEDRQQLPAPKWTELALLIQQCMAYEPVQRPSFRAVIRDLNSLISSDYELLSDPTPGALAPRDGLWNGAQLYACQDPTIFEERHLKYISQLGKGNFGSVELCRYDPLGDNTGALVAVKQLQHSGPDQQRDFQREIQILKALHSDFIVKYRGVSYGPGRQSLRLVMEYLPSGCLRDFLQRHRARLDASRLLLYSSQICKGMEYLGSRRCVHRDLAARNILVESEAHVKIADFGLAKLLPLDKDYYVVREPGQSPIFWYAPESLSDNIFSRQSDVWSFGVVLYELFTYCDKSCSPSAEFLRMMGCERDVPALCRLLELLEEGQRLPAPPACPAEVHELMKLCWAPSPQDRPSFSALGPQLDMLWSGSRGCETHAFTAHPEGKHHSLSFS

[5] = molecular target: Voltage-gated inwardly rectifying potassium channel KCNH2 (Homo sapiens, UniProt Q12809); test: Inhibition of human hERG
Sequence of Voltage-gated inwardly rectifying potassium channel KCNH2 (Q12809 whole entry): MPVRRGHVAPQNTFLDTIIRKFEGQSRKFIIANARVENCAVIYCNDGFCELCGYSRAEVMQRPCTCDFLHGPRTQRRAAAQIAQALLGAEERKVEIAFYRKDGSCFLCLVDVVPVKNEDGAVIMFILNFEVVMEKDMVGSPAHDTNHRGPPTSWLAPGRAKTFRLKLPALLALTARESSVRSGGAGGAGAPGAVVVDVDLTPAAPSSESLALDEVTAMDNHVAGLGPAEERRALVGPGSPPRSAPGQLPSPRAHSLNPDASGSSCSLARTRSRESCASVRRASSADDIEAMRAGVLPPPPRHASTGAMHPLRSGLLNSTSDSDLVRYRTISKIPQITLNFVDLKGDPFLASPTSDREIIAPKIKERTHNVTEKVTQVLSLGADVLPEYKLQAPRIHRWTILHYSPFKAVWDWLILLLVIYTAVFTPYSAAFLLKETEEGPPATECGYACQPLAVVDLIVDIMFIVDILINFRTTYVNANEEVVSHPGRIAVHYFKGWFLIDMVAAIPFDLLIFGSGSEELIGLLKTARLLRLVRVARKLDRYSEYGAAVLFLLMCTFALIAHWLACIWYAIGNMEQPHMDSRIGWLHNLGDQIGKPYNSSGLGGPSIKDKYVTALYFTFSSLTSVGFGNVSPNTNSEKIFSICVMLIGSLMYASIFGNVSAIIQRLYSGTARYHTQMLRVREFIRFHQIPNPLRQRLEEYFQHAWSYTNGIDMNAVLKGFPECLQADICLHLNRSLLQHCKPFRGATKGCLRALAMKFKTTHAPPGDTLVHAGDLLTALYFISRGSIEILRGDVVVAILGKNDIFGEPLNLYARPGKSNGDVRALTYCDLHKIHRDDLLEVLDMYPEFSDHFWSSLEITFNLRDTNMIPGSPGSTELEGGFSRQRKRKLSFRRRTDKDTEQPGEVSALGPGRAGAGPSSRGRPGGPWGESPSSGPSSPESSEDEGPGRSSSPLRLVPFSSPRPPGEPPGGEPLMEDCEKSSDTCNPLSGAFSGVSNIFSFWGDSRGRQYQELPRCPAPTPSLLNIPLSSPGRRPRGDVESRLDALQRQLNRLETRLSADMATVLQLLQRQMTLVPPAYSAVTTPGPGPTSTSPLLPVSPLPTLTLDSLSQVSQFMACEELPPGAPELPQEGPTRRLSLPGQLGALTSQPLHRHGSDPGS

[6] = molecular target: CYP3A4 (Homo sapiens, UniProt P08684); test: Inhibition of CYP3A4 at 10 uM; type: ADME
Sequence of CYP3A4 (P08684 whole entry): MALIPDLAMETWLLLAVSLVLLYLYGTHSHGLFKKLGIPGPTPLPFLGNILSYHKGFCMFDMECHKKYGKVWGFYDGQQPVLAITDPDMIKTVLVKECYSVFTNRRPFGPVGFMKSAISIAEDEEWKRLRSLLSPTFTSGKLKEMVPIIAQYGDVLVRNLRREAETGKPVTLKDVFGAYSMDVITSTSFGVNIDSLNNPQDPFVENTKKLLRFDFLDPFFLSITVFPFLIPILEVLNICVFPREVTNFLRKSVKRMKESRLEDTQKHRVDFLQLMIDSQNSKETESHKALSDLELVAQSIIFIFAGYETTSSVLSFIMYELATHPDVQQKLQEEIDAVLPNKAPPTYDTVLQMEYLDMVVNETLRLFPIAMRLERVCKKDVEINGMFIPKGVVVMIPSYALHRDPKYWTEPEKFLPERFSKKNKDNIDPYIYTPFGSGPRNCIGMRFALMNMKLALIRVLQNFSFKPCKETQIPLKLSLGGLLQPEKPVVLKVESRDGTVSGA

[7] = Clearance in rat at 1 mg/kg, iv; type: ADME, organism-based; parameters: dose 1 mg/kg, route intravenous; settings: in vivo
[8] = molecular target: CYP2C9 (Homo sapiens, UniProt P11712); test: Inhibition of CYP2C9 at 10 uM; type: ADME
Sequence of CYP2C9 (P11712 whole entry): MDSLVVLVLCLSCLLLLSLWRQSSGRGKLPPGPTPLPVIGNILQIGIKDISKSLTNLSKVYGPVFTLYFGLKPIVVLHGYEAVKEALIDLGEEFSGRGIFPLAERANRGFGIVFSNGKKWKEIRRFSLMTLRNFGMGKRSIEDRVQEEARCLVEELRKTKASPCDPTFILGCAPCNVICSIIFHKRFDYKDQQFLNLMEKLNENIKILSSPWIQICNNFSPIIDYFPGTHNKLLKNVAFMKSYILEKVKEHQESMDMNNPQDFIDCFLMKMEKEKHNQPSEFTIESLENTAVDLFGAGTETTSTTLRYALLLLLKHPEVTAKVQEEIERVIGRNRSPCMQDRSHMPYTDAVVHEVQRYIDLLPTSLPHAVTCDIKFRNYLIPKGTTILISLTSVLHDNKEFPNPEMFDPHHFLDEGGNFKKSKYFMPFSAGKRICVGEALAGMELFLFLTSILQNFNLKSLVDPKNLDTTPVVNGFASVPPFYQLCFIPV

[9] = Half life in rat at 1 mg/kg, iv; type: ADME, organism-based; parameters: dose 1 mg/kg, route intravenous; settings: in vivo
[10] = Metabolic stability in rat hepatocytes assessed as half life; type: ADME, cell-based, Liver, Hepatocyte
[11] = Bioavailability in rat at 1 mg/kg, iv; type: ADME, organism-based; settings: in vivo

T1 sequence (O60674 whole entry): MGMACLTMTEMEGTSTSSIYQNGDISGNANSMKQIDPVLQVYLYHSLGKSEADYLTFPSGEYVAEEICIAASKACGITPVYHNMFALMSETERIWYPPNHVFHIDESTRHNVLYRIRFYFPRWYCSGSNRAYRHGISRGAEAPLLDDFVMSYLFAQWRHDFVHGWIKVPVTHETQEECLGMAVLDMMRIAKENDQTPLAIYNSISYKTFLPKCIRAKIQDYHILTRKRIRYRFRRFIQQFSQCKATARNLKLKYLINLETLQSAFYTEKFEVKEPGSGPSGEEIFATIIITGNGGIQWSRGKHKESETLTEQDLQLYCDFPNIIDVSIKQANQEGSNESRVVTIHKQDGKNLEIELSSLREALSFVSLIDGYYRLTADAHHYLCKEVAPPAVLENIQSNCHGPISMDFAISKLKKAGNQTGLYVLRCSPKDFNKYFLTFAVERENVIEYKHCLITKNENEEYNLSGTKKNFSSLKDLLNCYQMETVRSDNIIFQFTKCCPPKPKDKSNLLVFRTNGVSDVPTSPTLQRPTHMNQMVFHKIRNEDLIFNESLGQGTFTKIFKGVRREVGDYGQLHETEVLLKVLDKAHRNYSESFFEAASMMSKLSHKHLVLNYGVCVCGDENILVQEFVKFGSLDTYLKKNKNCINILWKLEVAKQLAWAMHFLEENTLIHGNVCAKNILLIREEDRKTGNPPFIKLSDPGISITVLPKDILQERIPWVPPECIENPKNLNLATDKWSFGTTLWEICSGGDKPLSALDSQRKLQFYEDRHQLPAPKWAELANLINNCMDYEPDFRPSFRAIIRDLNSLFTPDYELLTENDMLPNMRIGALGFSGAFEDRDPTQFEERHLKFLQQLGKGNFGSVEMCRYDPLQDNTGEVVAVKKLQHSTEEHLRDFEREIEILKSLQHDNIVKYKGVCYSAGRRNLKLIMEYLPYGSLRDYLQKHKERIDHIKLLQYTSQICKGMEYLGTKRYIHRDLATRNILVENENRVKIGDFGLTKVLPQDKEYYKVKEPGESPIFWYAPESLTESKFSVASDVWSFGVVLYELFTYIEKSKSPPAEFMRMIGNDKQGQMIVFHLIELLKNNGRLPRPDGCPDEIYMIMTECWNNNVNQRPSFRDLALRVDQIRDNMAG

| Structure (SMILES) | Ratio IC50 [1] | IC50 [2] [µM] | IC50 [3] [µM] | IC50 [4] [µM] | other results |
| --- | --- | --- | --- | --- | --- |
| Cn1cc(-c2ccc3c(c2)[nH]c2c(C(N)=O)cnc(N[C@H](C4CCC4)C(F)(F)F)c23)cn1 | > 50 | 0.35 | 0.012 | 1.7 | – |
| CC(C)[C@@H](Nc1ncc(C(N)=O)c2[nH]c3cc(-c4cnn(C)c4)ccc3c12)C(F)(F)F | > 50 | – | 0.003 | 0.56 | – |
| CC(C)C(Nc1ncc(C(N)=O)c2[nH]c3cc(-c4cnn(C)c4)ccc3c12)C1CC1 (stereo not given) | > 50 | 0.095 | 0.003 | 0.21 | – |
| NC(=O)c1cnc(N2CCCCC2)c2c1[nH]c1ccc(F)cc12 | > 50 | – | 0.19 | – | – |
| NC(=O)c1cnc(NC2CCCC2)c2c1[nH]c1ccc(F)cc12 | > 50 | – | 0.051 | – | – |
| CC(C)CNc1ncc(C(N)=O)c2[nH]c3ccc(F)cc3c12 | > 50 | – | 0.074 | – | – |
| CNc1ncc(C(N)=O)c2[nH]c3ccc(F)cc3c12 | > 50 | – | 0.21 | – | – |
| NC(=O)c1cnc(NC2CCCCCC2)c2c1[nH]c1ccc(F)cc12 | > 50 | – | 0.019 | – | – |
| NC(=O)c1cnc(NC2CCCCC2)c2c1[nH]c1cc(-c3ccccc3)ccc12 | > 50 | – | 0.07 | – | – |
| Cn1cc(-c2ccc3c(c2)[nH]c2c(C(N)=O)cnc(NC4CCCCC4)c23)cn1 | > 50 | – | 0.005 | – | IC50 [5]: 0.62 µM; inhibition at 10 µM [6]: 75% |
| NC(=O)c1cnc(NC2CCCCC2)c2c1[nH]c1ccc(-c3ccccc3)cc12 | > 50 | – | 0.18 | – | – |
| Cn1cc(-c2ccc3[nH]c4c(C(N)=O)cnc(NC5CCCCC5)c4c3c2)cn1 | > 50 | – | 0.013 | – | – |
| CC(C)Cn1cc(-c2ccc3c(c2)[nH]c2c(C(N)=O)cnc(N[C@@H](C)C(C)(C)C)c23)cn1 | > 50 | – | 0.041 | – | – |
| NC(=O)c1cnc(N[C@H](C2CC2)C(F)(F)F)c2c1[nH]c1cc(-c3cn[nH]c3)ccc12 | – | 0.032 | 0.001 | 0.22 | inhibition at 10 µM [6]: 68%; clearance [7]: 21 mL/min/kg; inhibition at 10 µM [8]: 61% |
| C[C@H](Nc1ncc(C(N)=O)c2[nH]c3cc(-c4cnn(C)c4)ccc3c12)C1CC1 | > 50 | 0.014 | 0.001 | 0.14 | half-life [9]: 1 h; half-life [10]: 1.02 h; clearance [7]: 44 mL/min/kg |
| CCN(c1ncc(C(N)=O)c2[nH]c3ccc(F)cc3c12)C1CCCCC1 | > 50 | – | 2.7 | – | – |
| C[C@@H](Nc1ncc(C(N)=O)c2[nH]c3ccc(F)cc3c12)C(C)(C)C | > 50 | – | 0.21 | – | – |
| NC(=O)c1cnc(NC2CCCCC2)c2c1[nH]c1cc(-c3cc[nH]n3)ccc12 | – | – | 0.023 | – | – |
| C[C@H](Nc1ncc(C(N)=O)c2[nH]c3cc(-c4ccc(N)nn4)ccc3c12)C(C)(C)C | > 50 | – | 0.01 | – | – |
| NC(=O)c1cnc(NC2CCCCC2)c2c1[nH]c1cccc(Cl)c12 | > 50 | – | 0.11 | – | – |
| NC(=O)c1cnc(NC2CCCCC2)c2c1[nH]c1cc(-c3ccn[nH]3)ccc12 | > 50 | – | – | – | – |
| NC(=O)c1cnc(NC(C2CC2)C2CC2)c2c1[nH]c1cc(-c3cn[nH]c3)ccc12 | – | 0.04 | 0.003 | 0.22 | inhibition at 10 µM [6]: 66%; clearance [7]: 31 mL/min/kg; inhibition at 10 µM [8]: 80% |
| Cn1cc(-c2ccc3c(c2)[nH]c2c(C(N)=O)cnc(N[C@@H](C4CC4)C(F)(F)F)c23)cn1 | – | 0.53 | 0.009 | 1.9 | – |
| C[C@@H](Nc1ncc(C(N)=O)c2[nH]c3cc(-c4cnn(C)c4)ccc3c12)C1CC1 | > 50 | 0.079 | 0.011 | 0.74 | – |

| Structure (SMILES) | Ratio IC50 [1] | IC50 [2] [µM] | IC50 [3] [µM] | IC50 [4] [µM] | other results |
| --- | --- | --- | --- | --- | --- |
| NC(=O)c1cnc(NC2CCCCC2)c2c1[nH]c1cc(Cl)ccc12 | > 50 | – | 0.023 | – | – |
| C[C@H](Nc1ncc(C(N)=O)c2[nH]c3cc(-c4ccnc(N)n4)ccc3c12)C(C)(C)C | > 50 | – | 0.012 | – | – |
| NC(=O)c1cnc(N[C@H](C2CC2)C(F)(F)F)c2c1[nH]c1cc(-c3cnc(N4CCOCC4)nc3)ccc12 | > 50 | 0.53 | 0.008 | 0.43 | clearance [7]: 15 mL/min/kg |
| NC(=O)c1cnc(NC(C2CC2)C2CC2)c2c1[nH]c1cc(-c3cccnn3)ccc12 | > 50 | 0.028 | 0.002 | 0.27 | – |
| NC(=O)c1cnc(N2CCCC2)c2c1[nH]c1ccc(F)cc12 | > 50 | – | 0.23 | – | – |
| NC(=O)c1cnc(NC(C2CC2)C2CC2)c2c1[nH]c1cc(-c3cnc(N)nc3)ccc12 | > 50 | 0.029 | 0.001 | 0.22 | IC50 [5]: 8.2 µM; inhibition at 10 µM [6]: 55%; clearance [7]: 21 mL/min/kg; inhibition at 10 µM [8]: 35% |
| CCCNc1ncc(C(N)=O)c2[nH]c3ccc(F)cc3c12 | > 50 | – | 0.068 | – | – |
| CCCCNc1ncc(C(N)=O)c2[nH]c3ccc(F)cc3c12 | > 50 | – | 0.049 | – | – |
| CCC(Nc1ncc(C(N)=O)c2[nH]c3cc(-c4cnn(C)c4)ccc3c12)C1CC1 (stereo not given) | > 50 | 0.045 | 0.002 | 0.17 | – |
| NC(=O)c1cnc(N[C@H](C2CC2)C(F)(F)F)c2c1[nH]c1cc(-c3ccc(N4CCS(=O)(=O)CC4)nn3)ccc12 | > 50 | 0.12 | 0.002 | 0.16 | clearance [7]: 54 mL/min/kg |
| NC(=O)c1cnc(NC2CCOCC2)c2c1[nH]c1ccc(F)cc12 | > 50 | – | 0.018 | – | – |
| CC(C)Nc1ncc(C(N)=O)c2[nH]c3ccc(F)cc3c12 | > 50 | – | 0.1 | – | – |
| NC(=O)c1cnc(NC2CCCCC2)c2c1[nH]c1cc(-c3cn[nH]c3)ccc12 | > 50 | – | 0.013 | – | – |
| NC(=O)c1cnc(N[C@H](C2CC2)C(F)(F)F)c2c1[nH]c1cc(-c3ccc(N)nc3)ccc12 | > 50 | 0.061 | 0.002 | 0.37 | IC50 [5]: 0.75 µM; inhibition at 10 µM [6]: 65%; clearance [7]: 6 mL/min/kg; inhibition at 10 µM [8]: 41% |
| NC(=O)c1cnc(NC2CCCCC2)c2c1[nH]c1ccc(F)cc12 | > 50 | – | 0.017 | – | – |
| NC(=O)c1cnc(NC(C2CC2)C2CC2)c2c1[nH]c1cc(-c3cnc(N)cn3)ccc12 | > 50 | 0.1 | 0.004 | 0.64 | IC50 [5]: 0.72 µM; inhibition at 10 µM [6]: 65%; inhibition at 10 µM [8]: 46% |
| NC(=O)c1cnc(NC2CCC2)c2c1[nH]c1ccc(F)cc12 | > 50 | – | 0.083 | – | – |
| Cn1cc(-c2ccc3c(c2)[nH]c2c(C(N)=O)cnc(N[C@H](C4CC4)C(F)(F)F)c23)cn1 | – | 0.041 | 0.0004 | 0.23 | inhibition at 10 µM [6]: 48%; half-life [9]: 4.1 h; bioavailability [11]: 65%; clearance [7]: 14 mL/min/kg; inhibition at 10 µM [8]: 66% |
| C[C@H](Nc1ncc(C(N)=O)c2[nH]c3ccc(F)cc3c12)C(C)(C)C | > 50 | – | 0.052 | – | – |
| C[C@H](Nc1ncc(C(N)=O)c2[nH]c3cc(-c4cnn(C)c4)ccc3c12)C(C)(C)C | > 50 | 0.37 | 0.005 | 0.35 | IC50 [5]: 29 µM; inhibition at 10 µM [6]: 49%; half-life [10]: 0.25 h |
| NC(=O)c1cnc(NC2CCCCC2)c2c1[nH]c1ccccc12 | > 50 | – | 0.059 | – | – |
| Cn1cc(-c2ccc3c(c2)[nH]c2c(C(N)=O)cnc(NC(C4CC4)C4CC4)c23)cn1 | > 50 | 0.13 | 0.002 | 0.28 | IC50 [5]: 1.7 µM; inhibition at 10 µM [6]: 62%; half-life [9]: 3.2 h; clearance [7]: 22 mL/min/kg; inhibition at 10 µM [8]: 80% |
| C[C@H](Nc1ncc(C(N)=O)c2[nH]c3cc(-c4ccc(Cl)nn4)ccc3c12)C(C)(C)C | > 50 | – | 0.014 | – | – |
